{"source": "paper PMC6272942", "about": "“Lead Discovery of Type II BRAF V600E Inhibitors Targeting the Structurally Validated DFG-Out Conformation Based upon Selected Fragments” (Molecules, 2016)", "target": "BRAF V600E (Homo sapiens, UniProt P15056, V600E)", "sequence (P15056 whole entry V600E)": "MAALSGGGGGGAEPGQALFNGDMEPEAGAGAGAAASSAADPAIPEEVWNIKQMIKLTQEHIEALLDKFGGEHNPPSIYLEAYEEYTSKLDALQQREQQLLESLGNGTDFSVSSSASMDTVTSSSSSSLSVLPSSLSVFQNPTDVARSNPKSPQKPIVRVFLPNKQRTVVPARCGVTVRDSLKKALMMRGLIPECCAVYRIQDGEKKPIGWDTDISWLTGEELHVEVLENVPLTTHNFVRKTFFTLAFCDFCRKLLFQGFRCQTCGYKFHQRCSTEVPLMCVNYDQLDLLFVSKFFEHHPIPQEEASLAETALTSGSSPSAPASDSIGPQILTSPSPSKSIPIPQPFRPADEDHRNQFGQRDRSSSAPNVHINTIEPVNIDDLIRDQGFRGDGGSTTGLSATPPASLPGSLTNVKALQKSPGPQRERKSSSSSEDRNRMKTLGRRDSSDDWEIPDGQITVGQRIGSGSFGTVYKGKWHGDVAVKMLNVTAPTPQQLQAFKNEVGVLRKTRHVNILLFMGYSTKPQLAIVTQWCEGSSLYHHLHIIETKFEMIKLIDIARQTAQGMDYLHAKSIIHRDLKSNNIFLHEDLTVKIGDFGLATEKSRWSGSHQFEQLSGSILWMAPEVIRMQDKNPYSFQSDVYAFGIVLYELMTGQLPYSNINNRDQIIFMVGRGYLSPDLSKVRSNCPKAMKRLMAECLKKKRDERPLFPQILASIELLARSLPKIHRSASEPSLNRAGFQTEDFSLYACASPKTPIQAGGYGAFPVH", "test": "LanthaScreen biochemical kinase assay", "data": [{"smiles": "Cc1nc(Nc2cccc(NC(=O)Nc3cc(F)ccc3C)c2)cc(N2CCOCC2)n1", "note": "[SI-046, 1-(5-Fluoro-2-methylphenyl)-3-(3-(2-methyl-6-morpholinopyrimidin-4-ylamino)phenyl)urea]", "values": [{"measurement": "IC50", "value": 298, "unit": "nM"}]}, {"smiles": "Cc1nc(Nc2ccc(NC(=O)Nc3ccc(F)c(Cl)c3)cc2)cc(N2CCOCC2)n1", "note": "[SI-008, 1-(3-Chloro-4-fluorophenyl)-3-(4-(2-methyl-6-morpholinopyrimidin-4-ylamino)phenyl)urea]", "values": [{"measurement": "IC50", "value": 685, "unit": "nM"}]}]}
